Data: US9079864B2, “Modulators of S1P receptors” (Allergan, Inc., priority 2010, dated 2015)

Biological target: T1, human S1P1 receptor (Homo sapiens, UniProt P21453)
T1 construct: expressed in transfected cells; membranes used
Assay: GTP γ35S binding assay for S1P1 activity
Type: biochemical
Design: % stimulation: reference not given here
Conditions: for % stimulation: S1P1 receptor, agonist-induced; for EC50: membranes of cells stably expressing S1P1 receptor, agonist mode, 0.08 to 5,000 nM
Method: Novel compounds were synthesized and tested for S1P1 activity using the GTP γ^35S binding assay. These compounds may be assessed for their ability to activate or block activation of the human S1P1 receptor in cells stably expressing the S1P1 receptor. GTP γ^35S binding was measured in the medium containing (mM) HEPES 25, pH 7.4, MgCl2 10, NaCl 100, dithiothreitol 0.5, digitonin 0.003%, 0.2 nM GTP γ^35S, and 5 μg membrane protein in a volume of 150 μl. Test compounds were included in the concentration range from 0.08 to 5,000 nM unless indicated otherwise. Membranes were incubated with 100 μM 5′-adenylylimmidodiphosphate for 30 min, and subsequently with 10 μM GDP for 10 min on ice. Drug solutions and membrane were mixed, and then reactions were initiated by adding GTP γ^35S and continued for 30 min at 25° C. Reaction mixtures were filtered over Whatman GF/B filters under vacuum, and washed three times with 3 mL of ice-cold buffer (HEPES 25, pH 7.4, MgCl2 10 and NaCl 100). Filters were dried and mixed with scintillant, and counted for ^35S activity using a β-counter. Agonist-induced GTP γ^35S binding was obtained by subtracting that in the absence of agonist. In case of antagonist assay, the reaction mixture contained 10 nM S1P in the presence of test antagonist at concentrations ranging from 0.08 to 5000 nM.

T1 sequence (P21453 whole entry): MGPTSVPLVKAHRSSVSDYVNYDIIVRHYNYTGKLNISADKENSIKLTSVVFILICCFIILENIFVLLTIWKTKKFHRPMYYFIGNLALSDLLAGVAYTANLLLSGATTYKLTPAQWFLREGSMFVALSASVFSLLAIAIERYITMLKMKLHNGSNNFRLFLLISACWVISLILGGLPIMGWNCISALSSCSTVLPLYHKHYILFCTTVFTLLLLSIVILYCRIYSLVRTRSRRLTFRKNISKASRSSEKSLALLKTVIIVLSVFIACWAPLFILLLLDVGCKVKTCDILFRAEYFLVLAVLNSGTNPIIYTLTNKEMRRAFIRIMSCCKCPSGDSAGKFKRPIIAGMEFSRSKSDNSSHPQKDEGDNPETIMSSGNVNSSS

| Compound | % stimulation | EC50 |
| --- | --- | --- |
| CC(C)Oc1ccc(C#Cc2ccc(Cn3ccnc3)cc2)cc1Cl [Compound 3, 1-{4-[(3-chloro-4-isopropoxyphenyl)ethynyl]-benzyl}-1H-imidazole] | 81% | 14.7 nM |
| CC(C)Oc1ccc(C#Cc2ccc(CN3CCCC3)cc2)cc1C#N [Compound 2, 2-isopropoxy-5-{[4-(pyrrolidin-1-ylmethyl)phenyl]ethynyl}benzonitrile] | 110% | 365 nM |

The remaining lines, values ahead:

| % stimulation | EC50 | Compound |
| --- | --- | --- |
| 70% | 3.1 nM | Cc1cc(Cn2ccnc2)ccc1C#Cc1ccc(OC(C)C)c(C#N)c1 [Compound 4, 5-{[4-(1H-imidazol-1-ylmethyl)-2-methylphenyl]ethynyl}-2-isopropoxybenzonitrile] |
| 108% | 7.52 nM | CC(C)Oc1ccc(C#Cc2ccc(Cn3ccnc3)cc2Cl)cc1C#N [Compound 5, 5-{[2-chloro-4-(1H-imidazol-1-ylmethyl)phenyl]ethynyl}-2-isopropoxybenzonitrile] |
| 67% | 6.3 nM | CC(C)Oc1ccc(C#Cc2ccc(Cn3ccnc3)cc2)cc1C#N [Compound 1, 5-{[4-(1H-imidazol-1-ylmethyl)phenyl]ethynyl}-2-isopropoxybenzonitrile] |
